Results on 3 compounds are retold here after US20230329304A1, “METABOLIC THERAPY OF CANCER” (AMINOVITA S.L., priority 2020, published 2023).

The test system of one data set is 4T1 cancer cells. The data set can be described thus: Survival of mice with triple negative breast cancer (4T1 cells, intravenous model). The data set is classed as in vivo. The following applies: for mean survival (FIG. 4): 100,000 4T1 cells tail vein, treatment from day 8, diets 28 days, capecitabine 450 mg/kg/day oral cycles, cisplatin 5 mg/kg weekly x4 ip, control 26.1 days; for Survival improvement vs untreated mice (mean, days): Breast cancer, 4T1 cells, 100.000, tail vein injection (iv). The source says: (§1) All mice were purchased from Janvier Labs® (France). Male BALB/cAnNRJ mice were used for the renal cancer model (Renca cells, intraperitoneal model). Female BALB/cAnNRJ mice were used for the colon cancer models (CT26WT cells, intraperitoneal and intravenous models), and for the triple negative breast cancer model (4T1 cells, intravenous model). Female C57BL/6J mice were used for the lung cancer model (LLc1 cells, intravenous model) and for the melanoma model (B16-F10 cells, intravenous model). All mice were 12 weeks or older at the beginning of the experiments. Treatments started 8 days after the injection of the cancer cells for the 4T1 breast cancer model and for the Renca renal cancer model (when the number of injected cells was 100.000). Treatments started 7 days after the injection for the Renca cancer model when the number of inoculated cells was 150.000, and for the LLc1 lung cancer model. Treatments started 4 days after the injection in the CT26WT colon cancer models (intraperitoneal and intravenous) and in the B16-F10 melanoma model.
(§2) Murine cells (5th-7th passage) were cultured in 75-cm2 flask. When the cells were approximately 60-70% confluent, medium was removed and cells were washed twice with sterile PBS. Then, cells were incubated with trypsin/EDTA solution for 2-3 min at 37° C. to allow cells to have a rounded shape but without detaching. Next, trypsin/EDTA solution was aspirated, cells were resuspended in 5 mL sterile PBS and the cell suspension was pipetted up and down to break up any cell aggregate before adding 10% FBS supplemented medium. Then, a working cell suspension (between 5×10^5-25×10^6 cells/mL depending on cancer model) was prepared. This suspension was centrifuged (5 min, 250 g) at room temperature. Medium was removed and cells were resuspended in warm 2.5% FBS supplemented medium. The working cell suspension was aliquoted into 2 mL tubes and they were kept at 37° C. in a humidified atmosphere containing 5% CO2 until use. Several minutes before the injection, tubes were centrifuged at 300 g 4° C. for 3 min, medium was removed and cells were resuspended in sterile PBS. Cells were counted again. Finally, a 1-mL syringe (insulin type with a 29-G×½″ needle) was filled with 0.2 mL of the working cell suspension, which was injected in the peritoneal cavity or in the tail vein of the mice. After inoculating the last mice, the cells in the last tube were placed in a flask and monitored during several weeks under the microscope to ensure that all mice were inoculated with viable cells.
One day before the start of the treatments, mice were housed in individual cages to avoid cannibalism. Treatments started four, seven or eight days (depending on the model) after injecting the cancer cells. Most treatments with the artificial diets lasted at least 4 weeks. Treatment with the artificial diets simply consisted of replacing their normal diet with an artificial diet in which the levels of specific AAs and lipids were manipulated. Sunitinib, and capecitabine were administered daily in the diet. Cisplatin and the anti-PD1 antibody were injected intraperitoneally. Animals were monitored daily and body weights were determined periodically (at least three times per week). […] Post-mortem examination was carried out to confirm the cause of death and to observe the extent of the disease. Autopsies confirmed the presence of tumors in all euthanized mice. […]

In data set [1] the test system is CT26.WT cancer cells. The data set can be described thus: Survival of mice with colon cancer (CT26.WT cells, intraperitoneal model). It is filed as in vivo, female BALB/cAnNRJ mice.
Text: as §1
Murine cells (5th-7th passage) were cultured in 75-cm2 flask. When the cells were approximately 60-70% confluent, medium was removed and cells were washed twice with sterile PBS. Then, cells were incubated with trypsin/EDTA solution for 2-3 min at 37° C. to allow cells to have a rounded shape but without detaching. Next, trypsin/EDTA solution was aspirated, cells were resuspended in 5 mL sterile PBS and the cell suspension was pipetted up and down to break up any cell aggregate before adding 10% FBS supplemented medium. […] Cells were counted again. […] After inoculating the last mice, the cells in the last tube were placed in a flask and monitored during several weeks under the microscope to ensure that all mice were inoculated with viable cells.
(§3) One day before the start of the treatments, mice were housed in individual cages to avoid cannibalism. […] Animals were monitored daily and body weights were determined periodically (at least three times per week). […]

Data set [2] concerns CT26.WT cancer cells. The data set can be described thus: Survival of mice with colon cancer (CT26.WT cells, intravenous model). The data set is classed as in vivo, female BALB/cAnNRJ mice.
Text: as §1, with “Treatments started 4 days after the injection in the CT26WT colon cancer models (intraperitoneal and intravenous) and in the B16-F10 melanoma model.” left out
(§4) Murine cells (5th-7th passage) were cultured in 75-cm2 flask. […] Cells were counted again. […] After inoculating the last mice, the cells in the last tube were placed in a flask and monitored during several weeks under the microscope to ensure that all mice were inoculated with viable cells.
as §3

The next data set relates to B16-F10 cells. The data set can be described thus: Survival of mice with melanoma (B16-F10 cells, intravenous model). It is filed as in vivo, female C57BL/6J mice. The following applies: B16-F10 cells, 500.000, tail vein injection (iv), C57BL/6J mice.
Text: as §1, with “Treatments started 4 days after the injection in the CT26WT colon cancer models (intraperitoneal and intravenous) and in the B16-F10 melanoma model.” left out
as §4, §3

The test system of another data set is Renca cancer cells. The data set can be described thus: Survival of mice with renal cancer (Renca cells, intraperitoneal model). The data set is classed as in vivo, male BALB/cAnNRJ mice.
Text: as §1, §2, §3

Each structure is given as a SMILES string.

Consider `CCCCCOC(=O)Nc1nc(=O)n([C@@H]2O[C@H](C)[C@@H](O)[C@H]2O)cc1F` [Capecitabine], for which, in the data set on 4T1 cancer cells (4T1 iv model, capecitabine 450 mg/kg/day, 7-day treatment+7-day rest, oral, n=10), the “premature deaths by drug toxicity” value is “two mice died prematurely by excessive drug toxicity”. In addition, the “mean survival (FIG. 4)” value in the data set with 4T1 cancer cells stood at 24.2 days. In addition, the “Survival improvement vs untreated mice (mean, days)” value in the data set with 4T1 cancer cells is on record as “+3.7 days”; in the data set with CT26.WT cancer cells [1] (Colon cancer, CT26.WT cells, 10.000, intraperitoneal injection (ip)), “+7.6 days”; in the data set on CT26.WT cancer cells [2] (Colon cancer, CT26.WT cells, 10.000, tail vein injection (iv)), 0.0 days. The “mean survival (FIG. 2)” value with CT26.WT cancer cells [1] (100,000 CT26.WT cells ip, treatment from day 4, P10 6 weeks, capecitabine 450 mg/kg/day oral cycles, control 24.6 days) is recorded as 27.7 days. Moreover, in the data set with CT26.WT cancer cells [1] (100,000 CT26.WT cells ip, treatment from day 4, diets 6 weeks, capecitabine 450 mg/kg/day, 7-day treatment+7-day rest, oral), the “days lived more than untreated mice” value came out at 4.5 days. The “mean survival (FIG. 3)” value in the data set on CT26.WT cancer cells [2] (100,000 CT26.WT cells tail vein, treatment from day 4, P6 28 days, capecitabine 450 mg/kg/day oral cycles, control 33.3 days) was 36.7 days.

On to `N.N.[Cl][Pt][Cl]` [Cisplatin], for which the figures for the “Survival improvement vs untreated mice (mean, days)” value with B16-F10 cells and with 4T1 cancer cells were “+3.5 days” and “+4.7 days”, respectively. In addition, the “mean survival (FIG. 4)” value in the data set with 4T1 cancer cells amounted to 33.6 days.

For the compound `CCN(CC)CCNC(=O)c1c(C)[nH]c(/C=C2\C(=O)Nc3ccc(F)cc32)c1C` [Sunitinib, Sunitinib malate], the “mean survival (FIG. 1)” value in the data set on Renca cancer cells (100,000 Renca cells ip, treatment from day 8, P2 28 days, sunitinib 60 mg/kg/day 28 days oral, anti-PD1 250 μg ip x4, control 35.2 days) was found to be 62.2 days. The “Mean survival” value in the data set with Renca cancer cells (150,000 Renca cells ip, treatment from day 7, 28 days, 10 days normal diet, 21 more days, sunitinib 60 mg/kg/day oral, control 30.75) came out at 48 days. In addition, the “Survival improvement vs. Control” value in the data set with Renca cancer cells (150,000 Renca cells ip, treatment from day 7, Table 4 experiment) is recorded as 17.25 days. The “Survival improvement vs untreated mice (mean, days)” value in the data set on Renca cancer cells (Renal cancer, renca cells, 100.000, intraperitoneal injection (ip)) was “+20.4 days”.
